{"source": "patent US20080039522A1", "about": "“Composition Containing a Complex Comprising a Metal Ion and a Carboxylate Ligand Having Anti-Inflammatory Activity” (Medical Therapies Limited, priority 2004, published 2008)", "key": {"Sprague-Dawley rats [1]": {"system": "Sprague-Dawley rats", "experiment": "Inhibition of carrageenan-induced paw edema, oral administration", "assay_type": "in vivo, rat", "conditions": "oral, IndoH 10 mg kg^−1, complex 11 mg kg^−1, mean(sem)", "protocol": "Inhibition of Carrageenan-Induced Paw Edema: Rats were orally administered (non-anaesthetized) the Test Samples or Test Compositions via oral gavage. The control cohort was dosed solely with CMC (2%) solution. […] Exp. Ther. 1965, 150, 165-171). The thickness of the paw was measured at the ventral dorsal footpad using digital calipers prior to dosing and at 3 and 5 h after carrageenan injection. The change in the measured parameter (ΔP) for thickness of paw (Δmm) at n=3- and 5-hours after carrageenan injection is given by: ΔP=Pt=n-Pt=0 (I) The percent inhibition (% inhibition) at 3- or 5-hours in the measured parameter (P) due to the treatment is given as the difference between the % increase in the value of P in the control group and the treatment group at n=3- or 5-hours, with the % increase in the value of P given by: […]"}, "Sprague-Dawley rats [2]": {"system": "Sprague-Dawley rats", "experiment": "Anti-inflammatory activity (rat paw oedema) after subcutaneous or intramuscular injection", "assay_type": "in vivo", "protocol": "In Vivo Anti-inflammatory Activity and Gastric Toxicity. Groups of four rats were used for all studies. All doses were calculated as equivalent concentrations of Indo. […] For subcutaneous and intramuscular administration, rats were injected with 125-200 μL volumes of the test compositions (IndoH or [Cu2(Indo)4(OH2)2] in MCT oil). The control cohort was injected with equivalent volumes of neat MCT. Subcutaneous injections were made in the lower dorsal surface and intramuscular injections were made in the right hind thigh muscle. Inflammation was induced 1 h after dosing by injection of the formulation by an injection of carrageenan (0.1 mL, 1% w/v in isotonic saline) into the plantar region of the hind paw.\nPaw volume was measured prior to dosing and at 3 h after carrageenan injection by immersing the left hind paw (to the lateral malleus) into a vessel filled with water as described in Example 5. Immediately after paw volume measurements, 24 h-fasted animals were euthanised and the stomach was excised and opened by incision along the greater curvature."}, "Sprague-Dawley rats [3]": {"system": "Sprague-Dawley rats", "experiment": "Anti-inflammatory activity (rat paw oedema) of topical creams", "assay_type": "in vivo", "conditions": "topical emulsifying cream", "protocol": "All rat experiments were performed as outlined in Example 7, except for the following changes. In Vivo Anti-inflammatory Activity and Gastric Toxicity. For topical administration, rats were treated with test compositions containing [Cu2(Indo)4(OH2)2] (“CuIndo”), [Zn(Indo)2(OH2)2] (“ZnIndo”), IndoH, or an equivalent Indo and Cu dose of a physical mixture of [Cu2(OAc)4(OH2)2] and IndoH thoroughly mixed in an emulsifying cream (see below). An amount of 0.2 g of the composition was applied to the right hind paw of each animal and gently massaged in for 1 minute at three-hourly intervals. Inflammation was induced at the final topical application with an injection of carrageenan (0.1 mL, 1% w/v in isotonic saline) into the plantar region of the hind paw. The composition for topical application was a composition comprising 0.5-2% w/w of Indo delivered as [Cu2(Indo)4(OH2)2] (“CuIndo”), [Zn(Indo)2(OH2)2] (“ZuIndo”), IndoH or an equivalent Indo and Cu dose of a physical mixture of [Cu2(OAc)4(OH2)2] and IndoH in an emulsifying cream, the emulsifying cream consisting of: […]"}}, "data": [{"smiles": "COc1ccc2c(c1)c(CC(=O)[O-])c(C)n2C(=O)c1ccc(Cl)cc1.COc1ccc2c(c1)c(CC(=O)[O-])c(C)n2C(=O)c1ccc(Cl)cc1.COc1ccc2c(c1)c(CC(=O)[O-])c(C)n2C(=O)c1ccc(Cl)cc1.COc1ccc2c(c1)c(CC(=O)[O-])c(C)n2C(=O)c1ccc(Cl)cc1.O.O.[Cu+2].[Cu+2]", "note": "[[Cu2(Indo)4(OH2)2]]", "values": [{"measurement": "percent inhibition in rat hind-paw diameter change, 3-hr", "setting": "Sprague-Dawley rats [1]; 3 h post carrageenan", "value": "30(4)%"}, {"measurement": "percent inhibition in rat hind-paw diameter change, 5-hr", "setting": "Sprague-Dawley rats [1]; 5 h post carrageenan", "value": "31(3)%"}, {"measurement": "Percent inhibition", "setting": "Sprague-Dawley rats [2]; intramuscular, fasting rats, 2 mg/kg equivalent dose of Indo", "value": 0, "unit": "%"}, {"measurement": "Percent inhibition", "setting": "Sprague-Dawley rats [2]; intramuscular, fasting rats, 10 mg/kg equivalent dose of Indo", "value": 47.7, "unit": "%"}, {"measurement": "Percent inhibition", "setting": "Sprague-Dawley rats [2]; intramuscular, fasting rats, 20 mg/kg equivalent dose of Indo", "value": 49.7, "unit": "%"}, {"measurement": "Percent inhibition", "setting": "Sprague-Dawley rats [2]; subcutaneous, 1 mg/kg of Indo, fasting", "value": 4, "unit": "%"}, {"measurement": "Percent inhibition", "setting": "Sprague-Dawley rats [2]; subcutaneous, 2 mg/kg of Indo, fasting", "value": 6, "unit": "%"}, {"measurement": "Percent inhibition", "setting": "Sprague-Dawley rats [2]; subcutaneous, 5 mg/kg of Indo, fasting", "value": 24.9, "unit": "%"}, {"measurement": "Percent inhibition", "setting": "Sprague-Dawley rats [2]; subcutaneous, 7.5 mg/kg of Indo, non-fasting", "value": 47, "unit": "%"}, {"measurement": "Percent inhibition", "setting": "Sprague-Dawley rats [2]; subcutaneous, 10 mg/kg of Indo, fasting", "value": 35.8, "unit": "%"}, {"measurement": "Percent inhibition", "setting": "Sprague-Dawley rats [2]; subcutaneous, 20 mg/kg of Indo, fasting", "value": 33.9, "unit": "%"}, {"measurement": "Percent inhibition", "setting": "Sprague-Dawley rats [2]; subcutaneous, 20 mg/kg of Indo, non-fasting", "value": 31.6, "unit": "%"}, {"measurement": "dose at which the anti-inflammatory effect plateaus", "setting": "Sprague-Dawley rats [2]; subcutaneous, in MCT oil", "value": "5-7.5 mg kg^−1 of Indo"}, {"measurement": "Efficacy (% inhib)", "setting": "Sprague-Dawley rats [3]; conc. 0.5 % equiv of Indo", "value": 12.2, "unit": "% inhib"}, {"measurement": "Efficacy (% inhib)", "setting": "Sprague-Dawley rats [3]; conc. 0.75 % equiv of Indo", "value": 73, "unit": "% inhib"}, {"measurement": "Efficacy (% inhib)", "setting": "Sprague-Dawley rats [3]; conc. 1 % equiv of Indo", "value": 52, "unit": "% inhib"}, {"measurement": "Efficacy (% inhib)", "setting": "Sprague-Dawley rats [3]; conc. 2 % equiv of Indo", "value": 55.2, "unit": "% inhib"}]}]}
